Experimental data from patent publication US12187662B2, “FOXM1 inhibitor compositions and methods of using the same” (The Board of Trustees of the University of Illinois, priority 2018, dated 2025).
“Also recorded” adds a separate entry of the source.

Tests used:
FOXM1 protein [1] = target: T1, FOXM1 protein (Homo sapiens, UniProt Q08050); assay: Direct binding of Fl-NB-72 to FOXM1 by tr-FRET; settings: direct tr-FRET titration
T1 construct: a terbium donor was attached to purified full length FOXM1 through a streptavidin-biotin linker
T1 sequence (Q08050 1-763): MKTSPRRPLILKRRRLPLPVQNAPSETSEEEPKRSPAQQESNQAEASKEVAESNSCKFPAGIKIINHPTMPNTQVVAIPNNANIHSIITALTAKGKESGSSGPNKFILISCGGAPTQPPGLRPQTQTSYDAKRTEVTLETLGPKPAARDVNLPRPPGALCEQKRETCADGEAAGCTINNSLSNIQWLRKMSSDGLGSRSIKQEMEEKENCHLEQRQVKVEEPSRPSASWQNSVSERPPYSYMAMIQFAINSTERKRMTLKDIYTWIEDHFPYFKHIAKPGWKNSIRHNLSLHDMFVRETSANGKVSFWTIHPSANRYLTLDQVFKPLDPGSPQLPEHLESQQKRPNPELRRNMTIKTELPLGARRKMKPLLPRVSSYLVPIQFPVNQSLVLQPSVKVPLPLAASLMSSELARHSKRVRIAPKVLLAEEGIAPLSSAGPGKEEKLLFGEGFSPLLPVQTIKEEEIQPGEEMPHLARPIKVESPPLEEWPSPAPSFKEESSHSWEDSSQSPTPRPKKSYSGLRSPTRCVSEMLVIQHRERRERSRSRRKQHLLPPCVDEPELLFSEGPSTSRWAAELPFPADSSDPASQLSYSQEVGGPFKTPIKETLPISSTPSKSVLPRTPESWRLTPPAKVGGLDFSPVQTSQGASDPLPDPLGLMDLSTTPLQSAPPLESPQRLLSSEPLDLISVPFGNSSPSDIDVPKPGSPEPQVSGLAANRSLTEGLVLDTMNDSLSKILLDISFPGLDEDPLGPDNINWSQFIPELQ
Experimental: Direct binding experiments for determination of Kd for Fl-NB-72. […] The Biotin-FOXM1 was diluted to a concentration of 3×(5 nM+1.25 nM SaTb). 5 μL of each of these were mixed on a black Molecular Devices microtiter plate with 5 μL of FRET buffer, so that each component was diluted 3×. Each point was prepared in duplicate, mixed, and incubated for 1 h at room temperature, in the dark. tr-FRET was measured on a Victor X5 microtiter plate reader with settings as given above.

MCF10A cells = assay: Cell proliferation, MCF10A (low FOXM1); format: cell-based, human; settings: 6 days
Experimental: (§1) Cell lines and cell culture methods MCF7 and other breast cancer cell lines were obtained from the ATCC and were maintained and cultured as described (Bergamaschi et al., Breast Cancer Res., 2014, 16:436; Madak-Erdogan et al., Mol. Syst. Biol., 2013, 9:676; Zhao et al., Cancer Res., 2017, 77:5602-13). DT22 cells were derived from a human triple negative invasive ductal breast carcinoma and were grown in culture as described (Drews-Elger et al., Breast cancer research and treatment, 2014, 144:503-17). All cells were tested for mycoplasma using Real-Time PCR Mycoplasma Detection Kit (Akron Biotech, Boca Raton, FL).
(§2) Cell proliferation assay WST-1 assay (Roche, Basel, Switzerland) was used to quantify cell viability as described (Gong et al., Mol. Cell Endocrinol., 2016, 437:190-200). Absorbance was measured at 450 nm using a VICTOR X5 PerkinElmer 2030 Multilabel Plate Reader. All assays were performed in triplicate.

MCF7 xenograft tumors = assay: MCF7 breast cancer xenografts in ovariectomized NSG mice; format: in vivo, mouse; settings: 100 mg/kg s.c. daily
Experimental: For examination of the growth of ER-positive MCF7 xenograft tumors, female NSG mice were ovariectomized, and 2 weeks after ovariectomy, animals were supplemented with 0.36 mg E2-pellets (60-day release, Innovative Research of America) to support ER+ tumor growth. Cell suspensions of wild type MCF7 cells (1×10^6 cells/mouse) were injected subcutaneously (sc) in the right axial mammary gland and when tumors reached 100-150 mm^3 in size, mice were randomized and received compound or control vehicle (corn oil) by s.c. injection or oral gavage (PEG400/PVP/Tween/CMC as Veh) at the frequency indicated and tumor volume (length><width 2/2) was monitored over time.

[2] = test system: MDA-MB-453 breast cancer cells; assay: Cell proliferation, MDA-MB-453; format: cell-based, human; settings: inhibition of cell proliferation
Experimental: as §1, §2

[3] = test system: FOXM1 target genes in DT22 cells; assay: FOXM1 target gene expression by qRT-PCR, DT22; format: cell-based, human; settings: DT22, 24 h, at IC50 concentration
Source text: RNA was extracted from cells and expression of different genes was monitored by qRT-PCR. Assays were run in triplicate. Values are mean±SEM. *, p<0.05; **, p<0.01; ***, p<0.001. RNA isolation and real-time PCR Total RNA was isolated using TRIzol (Invitrogen) and reverse transcribed using […] reverse transcriptase (New England BioLabs). […] Relative mRNA levels of genes were normalized to the housekeeping gene 36B4, and fold change calculated relative to the vehicle treated samples. Results are the average±SD from at least two independent experiments carried out in triplicate. Primer sequences for the genes studied were obtained from the Harvard Primer Bank. Sequences are available on their website.

MCF7 cells = assay: Cell proliferation assay (WST-1), MCF7; format: cell-based, human; settings: inhibition of cell proliferation; read-out: IC50 MCF7
Experimental: (§3) All cells were tested for mycoplasma using Real-Time PCR Mycoplasma Detection Kit (Akron Biotech, Boca Raton, FL).
(§4) All assays were performed in triplicate.

FOXM1 protein [4] = target: T1, FOXM1 protein; assay: Competitive binding of inhibitors to FOXM1 by tr-FRET (Fl-NB-72 probe); settings: tr-FRET competition with Fl-NB-72; Ki calculated from IC50 (Cheng-Prusoff)
Experimental: Competitive binding assays of FOXM1 inhibitor binding to FOXM1 by tr-FRET were conducted. All tr-FRET experiments used FRET buffer (20 mM Tris, pH 7.5, 50 mM NaCl, 0.01% NP-40 detergent, 10% glycerol) with 0.3 mg/ml ovalbumin and 0.1 mM butylated hydroxy-anisole added fresh daily. Solutions of the protein, fluorescent probe and inhibitor dilutions were prepared at 3× the final concentrations, the final dilution taking place as they were mixed together on the microtiter plate.
Final concentrations were 10^-5M to 10^-9M, with the last point being buffer only, no inhibitor. Fluorescein-NB-72 (Fl-NB-72) was prepared at 1 mM in DMF and stored at −20° C. It was diluted into plain FRET buffer to give 100 nM in the assay.
Incubations were done in duplicate on black Molecular Devices 96-well microtiter plates. […] To this were added 5 μL of the inhibitor dilutions, mixed and incubated, in the dark, at room temperature, for 1 h. […] Diffusion-enhanced FRET was determined by a parallel incubation without biotin-FOXM1 and subtracted as a background signal. Graphs were prepared using Graph Pad/Prism 4.

[5] = test system: FOXM1 target genes in MCF7 cells; assay: FOXM1 target gene expression by qRT-PCR, MCF7; format: cell-based, human; settings: MCF7, 24 h, at IC50 concentration
Experimental: RNA was extracted from cells and expression of different genes was monitored by qRT-PCR. Assays were run in triplicate. Values are mean±SEM. *, p<0.05; **, p<0.01; ***, p<0.001. RNA isolation and real-time PCR Total RNA was isolated using TRIzol (Invitrogen) and reverse transcribed using […] reverse transcriptase (New England BioLabs). Real-time PCR was performed using SYBRgreen PCR Master Mix (Roche) as described (Bergamaschi et al., Breast Cancer Res., 2014, 16:436). Relative mRNA levels of genes were normalized to the housekeeping gene 36B4, and fold change calculated relative to the vehicle treated samples. Results are the average±SD from at least two independent experiments carried out in triplicate. Primer sequences for the genes studied were obtained from the Harvard Primer Bank. Sequences are available on their website.

DT22 cells = assay: Cell proliferation assay (WST-1), DT22; format: cell-based, human; settings: inhibition of cell proliferation; read-out: IC50 DT-22
Experimental: as §3, §4

[6] = test system: DT22 triple negative human breast tumor xenografts; assay: DT22 triple negative breast tumor xenografts in NSG mice; format: in vivo, mouse
Experimental: In vivo breast cancer xenograft studies For examination of the growth of triple-negative DT22 breast tumors, intact female NOD/SCID-gamma (NSG) mice were used. DT-22 cells (1×10^6 cells/mouse) were injected s.c. into the right axial mammary gland. Mice received s.c. injection or oral gavage daily or every second or third day, as indicated, with vehicle or FOXM1 inhibitor compound, and tumor growth was monitored over time.

[7] = Pharmacokinetic studies in mice after single s.c. or oral dose; settings: mice
breast cancer cell lines = assay: Proliferation of breast cancer cell lines (panel, line not specified); format: cell-based, human
Experimental: as §3, §4

Kd (FOXM1 protein [1]) | IC50 [2] | IC50 (MCF7 cells) | Ki (FOXM1 protein [4]) | PK p.o. AUC0-48 ([7]; 40 mg/kg p.o.) | PK p.o. t1/2 ([7]; 40 mg/kg p.o.) | PK s.c. AUC0-48 ([7]; 40 mg/kg s.c.) | PK s.c. t1/2 ([7]; 40 mg/kg s.c.) | IC50 (breast cancer cell lines; cell line not specified or several lines, read-out: IC50 for inhibition of proliferation of breast cancer cell lines) | SMILES | Concentration for 50% suppression of proliferation in MCF10A versus cells with high and intermediate FOXM1 (MCF10A cells) | Growth of MCF7 E2-treated xenograft tumors (MCF7 xenograft tumors) | Expression of ATF3 (gene suppressed by FOXM1) [3] | Expression of FOXM1 stimulated target genes (FOXM1C, AURKB, CCNB1, PLK1) [3] | Expression of ATF3 (gene suppressed by FOXM1) [5] | Expression of FOXM1 stimulated target genes (FOXM1C, AURKB, CCNB1, PLK1) [5] | IC50 (DT22 cells) | Tumor suppression at lower doses ([6]; 20 or 40 mg/kg (data not shown)) | Growth of DT22 tumor xenografts ([6]; daily s.c. or oral, 100 mg/kg) | Reduced potency in suppression of cell proliferation (versus salts) (breast cancer cell lines; cells in culture)
23 nM | – | – | – | – | – | – | – | – | O=C(NCCCCCCOc1ccc(C(c2ccc(OCCCCCCN3CCCCCC3)cc2)=C2C3C[C@H]4C[C@@H](C3)C[C@H]2C4)cc1)c1ccc(-c2c3ccc(=O)cc-3oc3cc(O)ccc23)c(C(=O)O)c1 [Fl-NB-72, 5-((6-(4-((L′)-((5r,7r)-adamantan-2-ylidene)(4-((6-(azepan-1-yl)hexyl)oxy)phenyl)methyl)phenoxy)hexyl)carbamoyl)-2-(6-hydroxy-3-oxo-3H-xanthen-9-yl)benzoic acid] | – | – | – | – | – | – | – | – | – | –
– | 3000 to 5000 nM | 3000 nM | 230 nM | 35.7 µM·h | 16.6 h | 34.7 µM·h | 26.7 h | 2000 to 10000 nM | Clc1ccc(C(=C2C3CC4CC(C3)CC2C4)c2ccc(OCCCCCCN3CCCC3)cc2)cc1 [NB-55, 1-(6-(4-((-((Z)-((5S,7S)-Adamantan-2-ylidene)(4-chlorophenyl)methyl)phenoxy)hexyl)pyrrolidine] | five times higher | reduces; also recorded: reduced the growth | increased | significantly reduced | increased | significantly reduced | 6000 nM | only marginally effective | effective tumor suppression; also recorded: very effectively suppressed | 5 fold
